Experimental data taken from patent US20210070748A1, “INHIBITORS OF BRUTONS TYROSINE KINASE” (Pharmacyclics LLC, priority 2015, published 2021).
Where two headings read alike, the source gives them in different places.

Columns and labels:
Format in all cases: biochemical
JAK3 = molecular target: T1, JAK3 (Homo sapiens, UniProt P52333); test: Inhibition of a panel of kinases, in vitro HotSpot kinase assay: JAK3; conditions: Table 10, Formula A-I; 1 μM ATP; read-out: JAK3 (IC50)
T1 sequence (P52333 1-1124): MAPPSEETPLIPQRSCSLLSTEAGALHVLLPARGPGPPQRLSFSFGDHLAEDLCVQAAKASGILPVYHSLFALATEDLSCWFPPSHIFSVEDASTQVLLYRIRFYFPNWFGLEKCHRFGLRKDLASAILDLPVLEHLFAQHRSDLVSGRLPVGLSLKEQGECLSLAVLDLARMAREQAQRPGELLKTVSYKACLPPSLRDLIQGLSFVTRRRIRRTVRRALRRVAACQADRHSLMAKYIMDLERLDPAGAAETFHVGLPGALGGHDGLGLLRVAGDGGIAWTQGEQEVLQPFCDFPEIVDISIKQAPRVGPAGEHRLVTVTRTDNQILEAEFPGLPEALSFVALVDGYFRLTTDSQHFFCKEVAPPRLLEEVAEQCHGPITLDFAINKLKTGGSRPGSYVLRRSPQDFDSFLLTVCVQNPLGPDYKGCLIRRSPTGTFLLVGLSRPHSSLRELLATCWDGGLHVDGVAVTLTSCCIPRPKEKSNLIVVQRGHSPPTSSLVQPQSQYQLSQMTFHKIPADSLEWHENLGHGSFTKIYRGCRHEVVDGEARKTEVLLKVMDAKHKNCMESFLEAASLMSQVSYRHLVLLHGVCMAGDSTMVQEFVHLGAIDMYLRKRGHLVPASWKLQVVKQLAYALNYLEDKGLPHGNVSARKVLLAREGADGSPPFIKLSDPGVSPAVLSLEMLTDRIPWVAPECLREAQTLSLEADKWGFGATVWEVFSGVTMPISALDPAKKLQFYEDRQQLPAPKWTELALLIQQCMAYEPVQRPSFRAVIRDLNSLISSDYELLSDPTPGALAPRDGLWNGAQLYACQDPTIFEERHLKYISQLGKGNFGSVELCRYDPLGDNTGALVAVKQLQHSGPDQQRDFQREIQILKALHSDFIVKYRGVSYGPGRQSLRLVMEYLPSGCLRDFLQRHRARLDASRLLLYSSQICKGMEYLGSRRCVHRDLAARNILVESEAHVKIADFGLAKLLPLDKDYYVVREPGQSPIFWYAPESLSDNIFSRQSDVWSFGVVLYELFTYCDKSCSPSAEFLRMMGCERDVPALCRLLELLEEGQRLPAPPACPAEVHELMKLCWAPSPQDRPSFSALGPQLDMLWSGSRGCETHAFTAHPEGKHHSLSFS

BTK-WT = molecular target: T2, BTK-WT (Homo sapiens, UniProt Q06187); test: Btk in vitro inhibitory activity (one of Method A TR-FRET, Method B electrophoretic mobility shift, Method C radiometric filter binding)
T2 construct: purified from insect cells as a full-length construct containing an N-terminal 6X-His tag; His6 (N); made in house; host or cells: insect cells (baculovirus Sf21 in Method B)
T2 sequence (Q06187 whole entry): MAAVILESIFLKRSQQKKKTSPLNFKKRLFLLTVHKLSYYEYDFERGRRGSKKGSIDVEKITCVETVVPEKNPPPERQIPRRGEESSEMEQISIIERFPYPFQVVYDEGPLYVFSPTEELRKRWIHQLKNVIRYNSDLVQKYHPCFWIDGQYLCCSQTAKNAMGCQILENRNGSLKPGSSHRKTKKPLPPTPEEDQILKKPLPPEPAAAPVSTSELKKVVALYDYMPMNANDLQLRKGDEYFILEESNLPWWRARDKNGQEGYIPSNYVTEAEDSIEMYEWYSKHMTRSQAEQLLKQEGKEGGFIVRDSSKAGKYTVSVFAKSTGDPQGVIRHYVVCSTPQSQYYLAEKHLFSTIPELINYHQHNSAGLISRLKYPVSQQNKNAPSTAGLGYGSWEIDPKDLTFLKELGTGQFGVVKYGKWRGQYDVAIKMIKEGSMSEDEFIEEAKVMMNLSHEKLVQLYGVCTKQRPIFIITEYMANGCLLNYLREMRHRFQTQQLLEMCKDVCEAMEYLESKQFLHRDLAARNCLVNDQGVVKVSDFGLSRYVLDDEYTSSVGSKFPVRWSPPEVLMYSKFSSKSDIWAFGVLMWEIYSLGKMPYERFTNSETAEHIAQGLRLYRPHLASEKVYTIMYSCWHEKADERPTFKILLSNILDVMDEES

ITK = molecular target: T3, ITK (Homo sapiens, UniProt Q08881); test: Inhibition of a panel of kinases, in vitro HotSpot kinase assay: ITK
T3 sequence (Q08881 1-620): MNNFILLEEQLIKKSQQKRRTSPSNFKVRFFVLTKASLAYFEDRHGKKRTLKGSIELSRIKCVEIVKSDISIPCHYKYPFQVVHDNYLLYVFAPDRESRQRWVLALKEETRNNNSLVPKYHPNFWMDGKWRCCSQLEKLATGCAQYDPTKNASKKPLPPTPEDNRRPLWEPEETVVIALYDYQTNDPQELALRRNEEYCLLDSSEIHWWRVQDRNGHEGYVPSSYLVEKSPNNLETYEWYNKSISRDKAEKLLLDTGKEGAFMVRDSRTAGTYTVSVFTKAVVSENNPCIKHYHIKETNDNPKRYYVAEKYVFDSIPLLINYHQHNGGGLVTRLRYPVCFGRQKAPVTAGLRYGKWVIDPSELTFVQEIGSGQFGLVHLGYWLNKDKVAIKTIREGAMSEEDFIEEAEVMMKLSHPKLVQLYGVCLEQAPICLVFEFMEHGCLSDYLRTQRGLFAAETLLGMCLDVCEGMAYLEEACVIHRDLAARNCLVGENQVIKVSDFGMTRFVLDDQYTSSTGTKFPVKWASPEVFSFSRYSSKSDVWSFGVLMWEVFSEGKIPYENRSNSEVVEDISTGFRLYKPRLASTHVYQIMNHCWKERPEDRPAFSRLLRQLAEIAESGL
Protocol: The degree of inhibition of a panel of kinases is determined using the in vitro HotSpot kinase assay (purified enzymes, ^33P-ATP, an appropriate substrate and 1 μM ATP).

[1] = Table 10, Formula A-I, read-out: BTK-WT (IC50)
[2] = E compounds, Table 17, read-out: IC50 BTK-WT
[3] = Table 15, C compounds, 1 μM ATP
[4] = Table 15, C compounds, read-out: IC50 BTK-WT

SMILES | IC50 (JAK3) [nM] | IC50 (BTK-WT; [1]) [nM] | IC50 (ITK; E compounds, Table 17) [nM] | IC50 (BTK-WT; [2]) [nM] | also measured
Cc1cc(Nc2cc(N3CCC[C@@H](NC(=O)c4ccc(C(C)C)cc4)C3)cnc2C(N)=O)sn1 [Example A-63, 3-[(3-methyl-1,2-thiazol-5-yl)amino]-5-[(3R)-3-[4-(propan-2-yl)benzamido]piperidin-1-yl]pyridine-2-carboxamide] | > 10000 | ≤ 100 |  |  | 
Cc1cc(Nc2nc(N3CCCC(CNC(=O)N(C)C)C3)cnc2C(N)=O)sn1 (stereo not shown) [Example A-78, 5-(3-{[(dimethylcarbamoyl)amino]methyl}piperidin-1-yl)-3-[(3-methyl-1,2-thiazol-5-yl)amino]pyrazine-2-carboxamide] | 1000 to 10000 | ≤ 100 |  |  | 
CC(C)c1ccc(C(=O)N[C@@H]2CCCN(c3cnc(C(N)=O)c(Nc4ccccn4)n3)C2)cc1 [Example A-71, 5-[(3R)-3-[4-(propan-2-yl)benzamido]piperidin-1-yl]-3-[(pyridin-2-yl)amino]pyrazine-2-carboxamide] | 1000 to 10000 | 1000 to 10000 |  |  | 
CCN1N=CC2C=C(C(=O)N[C@@H]3CCCN(c4cnc(C(N)=O)c(Nc5cc(C)ns5)n4)C3)C=CC21 (stereo partly drawn) [Example A-72, N-[(3R)-1-{5-carbamoyl-6-[(3-methyl-1,2-thiazol-5-yl)amino]pyrazin-2-yl}piperidin-3-yl]-1-ethyl-3a,7a-dihydro-1H-indazole-5-carboxamide] | 1000 to 10000 | ≤ 100 |  |  | 
Cc1cc(Nc2nc(N3CCC[C@H](NC(=O)c4ccc(N(C)C)cc4)[C@@H]3CO)cnc2C(N)=O)sn1 (stereo in doubt) [Example A-67, 5-[(2R,3S)-3-[4-(dimethylamino)benzamido]-2-(hydroxymethyl)piperidin-1-yl]-3-[(3-methyl-1,2-thiazol-5-yl)amino]pyrazine-2-carboxamide] | 100 to 1000 | ≤ 100 |  |  | 
Cc1cccc(C(=O)N[C@@H]2CCCN(c3cnc(C(N)=O)c(Nc4ccc(C5CCN(C6CCCC6)CC5)cc4)n3)C2)c1 [Example A-8, 3-{[4-(1-cyclopentylpiperidin-4-yl)phenyl]amino}-5-[(3R)-3-(3-methylbenzamido)piperidin-1-yl]pyrazine-2-carboxamide] | 100 to 1000 | ≤ 100 |  |  | 
Cc1cc(Nc2nc(N3CCC[C@@H](N(C)C(=O)c4ccc(C(C)C)cc4)C3)cnc2C(N)=O)sn1 [Example A-40, 3-[(3-methyl-1,2-thiazol-5-yl)amino]-5-[(3R)-3-[N-methyl4-(propan-2-yl)benzamido]piperidin-1-yl]pyrazine-2-carboxamide] | > 10000 | ≤ 100 |  |  | 
CN1C(=O)CCc2cc(Nc3nc(N[C@@H]4CCCN(C(=O)OC(C)(C)C)C4)nnc3C(N)=O)ccc21 [Example E-72, (R)-tert-butyl 3-(6-carbamoyl-5-(1-methyl-2-oxo-1,2,3,4-tetrahydroquinolin-6-ylamino)-1,2,4-triazin-3-ylamino)piperidine-1-carboxylate] |  |  | 1000 to 10000 | 10 to 100 | 
C=CC(=O)N1CCC[C@H](Nc2cnc(C(N)=O)c(Nc3ccc(C(C)C)cc3)n2)C1 [Example E-101, (S)-5-(1-acryloylpiperidin-3-ylamino)-3-(4-isopropylphenylamino) pyrazine-2-carboxamide] |  |  | 100 to 1000 | ≤ 10 | 
C=CC(=O)N1CCC[C@H](Nc2cnc(C(N)=O)c(Nc3ccc(C(C)C)cc3)n2)C1 [Example C-37, (S)-5-(1-acryloylpiperidin-3-ylamino)-3-(4-isopropylphenylamino) pyrazine-2-carboxamide] |  |  |  |  | IC50 (ITK; [3]): 100 to 1000 nM; IC50 (BTK-WT; [4]): ≤ 10 nM
C=CC(=O)N1CCCC[C@@H](Nc2nnc(C(N)=O)c(Nc3ccc(C(C)C)cc3)n2)C1 [Example C-38, (R)-3-(1-acryloylazepan-3-ylamino)-5-(4-isopropylphenylamino)-1,2,4-triazine-6-carboxamide] |  |  |  |  | IC50 (ITK; [3]): ≤ 10 nM; IC50 (BTK-WT; [4]): ≤ 10 nM
C=CC(=O)N1CCC(C)(c2ccc(Nc3nc(N[C@@H]4CCCN(C(=O)C=C)C4)nnc3C(N)=O)cc2)CC1 [Example E-32, (R)-5-(4-(1-acryloyl-4-methylpiperidin-4-yl)phenylamino)-3-(1-acryloylpiperidin-3-ylamino)-1,2,4-triazine-6-carboxamide] |  |  | ≤ 10 | ≤ 10 | 
C=CC(=O)N[C@@H]1CCCN(c2nnc(C(N)=O)c(Nc3ccc(C(C)C)cc3)n2)C1 [Example A-94, (R)-3-(3-acrylamido-piperidin-1-yl)-5-(4-isopropylphenylamino)-1,2,4-triazine-6-carboxamide] |  |  |  |  | IC50 (ITK; Table 13, A compounds, 1 μM ATP): 100 to 1000 nM; IC50 (BTK-WT; Table 13, A compounds, read-out: IC50 BTK-WT): 10 to 100 nM
C=CC(=O)N1CCC[C@H](Nc2nnc(C(N)=O)c(Nc3ccc(-c4ncco4)cc3)n2)C1 [Example C-34, (S)-3-(1-acryloylpiperidin-3-ylamino)-5-(4-(oxazol-2-yl)phenylamino)-1,2,4-triazine-6-carboxamide] |  |  |  |  | IC50 (ITK; [3]): 10 to 100 nM; IC50 (BTK-WT; [4]): ≤ 10 nM
C=CC(=O)N1CCC[C@@H](Nc2nnc(C(N)=O)c(Nc3ccc(C4CC4)cc3)n2)C1 [Example C-47, (R)-3-(1-acryloylpiperidin-3-ylamino)-5-(4-cyclopropylphenyl-amino)-1,2,4-triazine-6-carboxamide] |  |  |  |  | IC50 (ITK; [3]): 10 to 100 nM; IC50 (BTK-WT; [4]): ≤ 10 nM
C=CC(=O)N1CCC[C@H](N(C)c2nnc(C(N)=O)c(Nc3ccc(C(C)C)cc3)n2)C1 [Example E-27, (S)-3-((1-acryloylpiperidin-3-yl)(methyl)amino)-5-(4-isopropylphenylamino)-1,2,4-triazine-6-carboxamide] |  |  | 10 to 100 | ≤ 10 | 
C=CC(=O)N1CCC[C@@H](N(C(=O)C=C)c2nnc(C(N)=O)c(Nc3ccc(C4(C#N)CC4)cc3)n2)C1 [Example E-39, (R)-3-(N-(1-acryloylpiperidin-3-yl)acrylamido)-5-(4-(1-cyanocyclopropyl)phenylamino)-1,2,4-triazine-6-carboxamide] |  |  | 100 to 1000 | ≤ 10 | 
CN(c1cnc(C(N)=O)c(Nc2ccc(C3(C)CCN(C4CC4)CC3)cc2)n1)[C@@H]1CCN(C(=O)C(F)(F)F)C1 [Example C-66, (R)-3-(4-(1-cyclopropyl-4-methylpiperidin-4-yl)phenylamino)-5-(methyl(1-(2,2,2-trifluoroacetyl)pyrrolidin-3-yl)amino)pyrazine-2-carboxamide] |  |  |  |  | IC50 (ITK; [3]): ≤ 10 nM; IC50 (BTK-WT; [4]): ≤ 10 nM
C=CC(=O)N1CCC[C@H](Nc2nnc(C(N)=O)c(Nc3ccc(-c4ncco4)cc3)n2)C1 [Example E-18, (S)-3-(1-acryloylpiperidin-3-ylamino)-5-(4-(oxazol-2-yl)phenylamino)-1,2,4-triazine-6-carboxamide] |  |  | 10 to 100 | ≤ 10 | 
C=CC(=O)N[C@H]1CCC[C@@H](Nc2nnc(C(N)=O)c(Nc3ccc(C(C)C)cc3)n2)C1 [Example E-59, 3-((1R,3S)-3-acrylamidocyclohexyl-amino)-5-(4-isopropylphenylamino)-1,2,4-triazine-6-carboxamide] |  |  | 100 to 1000 | ≤ 10 | 
